Data on 9 compounds can be found in patent US20230049619A1, “SIGMA-1 RECEPTOR LIGANDS AND USES THEREOF” (UNIVERSITE DE STRASBOURG, priority 2019, published 2023).

Molecules are shown by their SMILES. Structures can show the parent of a compound that is named as a salt.

One data set has as its target T1, sigma-1 receptor (Homo sapiens, UniProt Q99720).
T1 construct: incubing Jurkat cell membranes ([…] protein per tube) with [^3H](+)-pentazocine; endogenous in cells; host or cells: Jurkat cell membranes
The experiment in a line: sigma-1 receptor binding assay ([3H](+)-pentazocine displacement, Jurkat cell membranes). The note with it: [3H](+)-pentazocine 15 nM, 37° C., 2 hours. How it is done:
The sigma-1 receptor binding assays were performed according to Ganapathy et al. (J Pharmacol Exp Ther 28:251-60, 1999). The sigma-1 receptor binding assay was carried out by incubing Jurkat cell membranes ([…] protein per tube) with [^3H](+)-pentazocine a selective sigma-1 radiotracer (15 nM) and a range of concentration of tested compounds, at 37° C. for 2 hours in 5 mM tris/HCl buffer (pH=7.4). The inhibition of [^3H](+)-pentazocine binding assay is mainly used to determine the inhibition constant (Ki) of potential sigma-1 receptor ligands. These assays are performed with a single concentration of [^3H](+)-pentazocine at a concentration near its KD and increasing concentrations of non-radioactive ligands.

T1 sequence (Q99720 whole entry): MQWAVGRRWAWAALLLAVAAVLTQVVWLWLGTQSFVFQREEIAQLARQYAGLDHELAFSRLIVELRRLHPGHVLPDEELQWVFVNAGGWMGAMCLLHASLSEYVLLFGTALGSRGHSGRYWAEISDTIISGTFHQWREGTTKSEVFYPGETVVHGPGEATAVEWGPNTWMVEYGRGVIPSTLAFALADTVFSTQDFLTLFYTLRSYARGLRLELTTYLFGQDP

For `Cl.O=c1c(-c2ccccc2)cncn1C1CCN(Cc2ccccc2)CC1` [cpd 43, 3-(1-benzylpiperidin-4-yl)-5-phenylpyrimidin-4(3H)-one hydrochloride], the melting point (usually the temperature, or range, at which the solid turns liquid) is 144 °C. On sigma-1 receptor (tested compound 10 nM), at 0.01 µM the inhibition was 86%. Besides, the inhibition (commonly the relative decrease from the control value, in per cent) at 0.1 µM at sigma-1 receptor (tested compound 100 nM) amounted to 90%.

In turn, `O=c1c(-c2ccccc2)ccnn1C1CCN(CC2CC2)CC1` [cpd 4, 2-[1-(cyclopropylmethyl)piperidin-4-yl]-4-phenyl-2,3-dihydropyridazin-3-one hydrochloride] yielded an inhibition at 0.01 µM on sigma-1 receptor (tested compound 10 nM) of 13.5%.

Consider `O=c1c(-c2ccccc2)ccnn1CC1(O)CCN(Cc2ccccc2)CC1` [cpd 29, 2-((1-benzyl-4-hydroxypiperidin-4-yl)methyl)-4-phenylpyridazin-3(2H)-one hydrochloride], for which the inhibition at 0.01 µM at sigma-1 receptor (tested compound 10 nM) amounted to 10.6%.

For the compound `O=c1c(-c2ccccc2)ccnn1CC1CCN(Cc2ccc(O)cc2)CC1` [cpd 18, 2-((1-(4-hydroxybenzyl)piperidin-4-yl)methyl)-4-phenylpyridazin-3(2H)-one hydrochloride], the inhibition at 0.01 µM at sigma-1 receptor (tested compound 10 nM) came to 16.7%.

`O=c1c(-c2ccccc2Cl)ccnn1CC1CCN(Cc2ccccc2)CC1` [cpd 33, 2-[(1-benzylpiperidin-4-yl)methyl]-4-(2-chlorophenyl)-2,3-dihydropyridazin-3-one hydrochloride] came in with an inhibition at 0.01 µM on sigma-1 receptor (tested compound 10 nM) of 51.2%.

As for `Cl.O=c1c(N2CCCCC2)ccnn1CC1CCN(Cc2ccccc2)CC1` [cpd 39, 2-[(1-benzylpiperidin-4-yl)methyl]-4-(piperidin-1-yl)-2,3-dihydropyridazin-3-one hydro-chloride], on sigma-1 receptor (tested compound 10 nM), the “sigma-1 receptor % inhibition 10 nM” value amounted to 51.8%.

Turning to `O=c1c(-c2ccccc2)cccn1CC1CCN(Cc2ccccc2)CC1` [cpd 46, 1-[(1-benzylpiperidin-4-yl)methyl]-3-phenyl-1,2-dihydropyridin-2-one hydrochloride], 0.01 µM produced 75.6% inhibition on sigma-1 receptor (tested compound 10 nM).

Compound `O=c1c(-c2ccccc2)cccn1C1CCN(Cc2ccccc2)CC1` [cpd 44, 1-(1-benzylpiperidin-4-yl)-3-phenyl-1,2-dihydropyridin-2-one hydrochloride] had an inhibition at 0.01 µM on sigma-1 receptor (tested compound 10 nM) of 29.6%.

For `O=c1c(N2CCOCC2)ccnn1CC1CCN(Cc2ccccc2)CC1` [cpd 40, 2-((1-benzylpiperidin-4-yl)methyl)-4-morpholinopyridazin-3(2H)-one hydrochloride], the inhibition at 0.01 µM at sigma-1 receptor (tested compound 10 nM) stood at 8.2%.
